Measurements published in patent US20090197970A1, “CRYSTALLINE FORM OF CINACALCET” (Sandoz AG, priority 2006, published 2009).

Columns and labels:
Format in all cases: physicochemical
[1] = Flowability and handling of the crystals; conditions: crystals in the form of plates
[2] = Storage stability of the crystalline form; conditions: stored at ambient temperature
[3] = Temperature range of stability of the polymorph (DSC discussion); conditions: form only stable above this temperature
Description: DSC curves were recorded with a DSC 7 system (Perkin Elmer, Norwalk, Conn., USA) using the Pyris 2.0. software. Samples of approximately 2 mg were weighted into A1 pans with perforated cover. Dry nitrogen was used as purge gas. X-axis is the temperature in ° C., Y-axis gives dH/dT (endo up).
Form I is a crystalline form which melts at about 180° C. and is only stable at temperatures above 130° C.

For `C[C@@H](NCCCc1cccc(C(F)(F)F)c1)c1cccc2ccccc12.Cl`, the flowability characteristics [1] was “favourable flowability characteristics”.
With `C[C@@H](NCCCc1cccc(C(F)(F)F)c1)c1cccc2ccccc12.Cl` [Form III of Cinacalcet hydrochloride] the stable when stored [2] was at least 3 months.
In the case of `C[C@@H](NCCCc1cccc(C(F)(F)F)c1)c1cccc2ccccc12.Cl` [Form I], the “temperature at which the form is stable” value [3] is reported as “above 130 °C”.
